Results taken from US20240342184A1, “USE OF ENHANCER 3C1 IN PREPARATION OF ENHANCER FOR INTERACTION BETWEEN FXR AND CASPASE 8” (CHINA PHARMACEUTICAL UNIVERSITY, priority 2021, published 2024).

How the values were obtained:
[1] = biological target: T1, interaction between FXR protein and Caspase 8 protein (Homo sapiens, UniProt Q14790+Q96RI1); experiment: Co-IP/Western blot of the FXR-Caspase 8 interaction in healthy L02 hepatocytes; type: cell-based; conditions: 3C1 at 1, 10, 100 μM for 2 h, FIG. 2
T1 construct: endogenous in cells; host or cells: L02 human hepatocyte cell line
T1 sequence (Q96RI1 whole entry): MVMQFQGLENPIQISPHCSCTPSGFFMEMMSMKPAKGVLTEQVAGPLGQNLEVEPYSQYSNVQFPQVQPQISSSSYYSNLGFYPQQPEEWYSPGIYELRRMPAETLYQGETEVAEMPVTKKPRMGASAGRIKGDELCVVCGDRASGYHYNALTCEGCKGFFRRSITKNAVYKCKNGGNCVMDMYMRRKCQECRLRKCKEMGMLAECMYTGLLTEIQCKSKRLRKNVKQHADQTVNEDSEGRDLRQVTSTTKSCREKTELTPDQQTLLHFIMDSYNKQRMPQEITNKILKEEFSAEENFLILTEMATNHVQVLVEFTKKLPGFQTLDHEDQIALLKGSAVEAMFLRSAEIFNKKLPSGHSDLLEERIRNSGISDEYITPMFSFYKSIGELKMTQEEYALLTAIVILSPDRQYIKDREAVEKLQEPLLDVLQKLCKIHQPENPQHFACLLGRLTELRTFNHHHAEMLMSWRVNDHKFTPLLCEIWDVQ
T1 sequence (Q14790 217-479): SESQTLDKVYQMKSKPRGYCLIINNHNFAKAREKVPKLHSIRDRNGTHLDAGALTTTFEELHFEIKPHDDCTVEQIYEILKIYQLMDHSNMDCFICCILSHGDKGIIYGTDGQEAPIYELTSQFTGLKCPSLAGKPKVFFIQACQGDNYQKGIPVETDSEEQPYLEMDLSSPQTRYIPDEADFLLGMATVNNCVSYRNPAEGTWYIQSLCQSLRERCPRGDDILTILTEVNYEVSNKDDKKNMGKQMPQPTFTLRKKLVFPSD
Method: 1) Cells were washed twice with pre-chilled phosphate-buffered saline (PBS), an appropriate amount of pre-chilled PBS was added for the last time, a pre-chilled cell scraper was used to scrape the cells from a culture dish or a culture flask, and a suspension was transferred to a 1.5 ml electropolished (EP) tube. After centrifugation at 4° C. and 4000 rpm for 5 min, a supernatant was discarded, an appropriate amount of an NP40 lysis buffer was added, a mixture obtained was shaken evenly, and the cells were ultrasonicated for a total of 3 times (5 s per time) until the cells were completely lysed. After centrifugation at 4° C. and 14000 g for 10 min, a supernatant was transferred to a new EP tube, to obtain a protein lysis buffer. A protein concentration was determined through a bicinchoninic acid (BCA) assay.
2) 25 μl of Protein A Beads was taken and blocked with 5% bovine serum albumin (BSA) for 1 h at room temperature, and then washed with the PBS for 3 times, and a supernatant was discarded after centrifugation at 14000 g for 1 min each time. The protein lysis buffer with a uniform concentration was added to the Beads, rocking-turn was performed at 4° C. for 1 h, and a sample was pre-cleared. After centrifugation at 14000 g for 1 min, a supernatant was transferred to a new EP tube. […]

[2] = biological target: T1, interaction between FXR protein and Caspase 8 protein; experiment: Co-IP/Western blot of the FXR-Caspase 8 interaction in apoptotic L02 hepatocytes; type: cell-based; conditions: L02 cells, ActD/TNFα-induced apoptosis, 3C1 at 1, 10, 100 μM for 2 h, FIG. 3
Method: A human hepatocyte cell line L02 was cultured in a complete DMEM containing 10% FBS, and placed in a culture incubator containing 5% CO2 for culturing at 37° C., and cells in a logarithmic growth phase were inoculated in a 12-well plate at a density of 2×10^5 cells/well. After 24 h, an apoptosis model was constructed by means of human tumor necrosis factor-related apoptosis-inducing ligand (TRAIL), Actinomycin D (ActD)/tumor necrosis factor alpha (TNFα), and cycloheximide (CHX)/Fas ligand (FasL) methods respectively. Cells were treated with TRAIL at 50 ng/ml for 0, 2, 4, 8, 12, and 24 h, respectively. […] Cells were incubated with ActD/TNFα for 0, 1, 2, 4, 8, and 12 h, respectively. […] Cells were incubated with […] for 0, 2, 4, and 8 h, respectively.
1) Cells were washed twice with pre-chilled phosphate-buffered saline (PBS), an appropriate amount of pre-chilled PBS was added for the last time, a pre-chilled cell scraper was used to scrape the cells from a culture dish or a culture flask, and a suspension was transferred to a 1.5 ml electropolished (EP) tube. […] A protein concentration was determined through a bicinchoninic acid (BCA) assay. […]

[3] = system: human hepatocyte cell line L02; experiment: MTT cell viability assay in induced hepatocyte apoptosis models; type: cell-based; conditions: 3C1 at 1, 10, 100 μM, L02 cells
Method: A human hepatocyte cell line L02 was cultured in complete medium DMEM containing 10% fetal bovine serum (FBS), and placed in a culture incubator containing 5% CO2 at 37° C., and cells in a logarithmic growth phase were inoculated in a 96-well plate at a density of 5×10^3 cells/well. The cells were transfected at 50 nM after 24 h. Hepatocyte apoptosis was induced 48 h later after the transfection. […]
In addition to an apoptosis reagent, the compound 3C1 of different concentrations (1 μM, 10 μM, and 100 μM) was administered.
After the time of administration, 20 μl of MTT (5 mg/ml) was added to each well, the cells were further incubated at 37° C. for 4 h, a culture medium was aspirated and discarded, 150 μl of dimethyl sulfoxide (DMSO) was added to each well, incubation was performed at 37° C. for 10 min, and the absorbance was measured at 490 nm.

[4] = system: C57BL/6 mice; experiment: CCl4-induced liver injury of mice; type: in vivo, mouse; conditions: CCl4-injected C57BL/6 mice, 3C1 at 5 or 10 mg/kg/day i.p.
Method: Before the experiment, C57BL/6 mice were acclimated for one week under the conditions of, room temperature at 22-26° C. and relative humidity of 40-60%, with light alternated with darkness for 12 h. Each mouse was housed in a separate cage with free access to water and food, and their body weights were maintained at 20-22 g. Experimental groups included a blank control group, a model group, a low-dose 3C1 administration group (5 mg/kg), and a high-dose 3C1 administration group (10 mg/kg).
The C57BL/6 mice in the low-dose 3C1 administration group and the high-dose 3C1 administration group were pre-administered with intraperitoneal injections of 3C1 at a dose of 5 mg/kg/day or 10 mg/kg/day, and the mice in other groups were subject to vehicle control. 3 days later, liver injury was induced by intraperitoneal injections of CCl4, and the control group was administered with mineral oil. The mice were euthanized 48 h later. Blood and livers of the mice were collected.
After standing at room temperature for 0.5 h, whole blood was centrifuged at 8000 rpm for 10 min, and a supernatant was transferred to a new electropolished (EP) tube to obtain serum. Alanine transaminase (ALT) and aspartate transaminase (AST) were detected according to instructions of ALT and AST assay kits.
1) 20 mg of a liver tissue sample from each mouse was weighed, 1.0 ml of RNAiso Plus was added, the samples were homogenized, and a homogenate was transferred to a centrifuge tubes, kept standing at room temperature for 5 min, and centrifuged at 4° C. and 12000 g for 5 min.
2) 800 μl of a supernatant was transferred, 160 μl of chloroform was added, and a mixture obtained was vigorously shaken for 15 sec, and then centrifuged at 12000 g for 15 min after standing at room temperature for 5 min. A sample included three layers: a bottom layer as a yellow organic phase, an upper layer as a colorless aqueous phase, and an intermediate layer.
3) 300 μl of the upper aqueous phase was carefully transferred to a new tube, 300 μl of isopropanol was added, after inverting and mixing, a mixture obtained stood at room temperature for 10 min, and after centrifugation at 12000 g for 10 min, the supernatant was discarded.
An RNA precipitate was washed with 1.0 ml of pre-chilled 75% ethanol and then centrifuged at 12000 g for 5 min, and a supernatant was discarded to obtain total RNA, which was reconstituted with 20 μl of DEPC water and diluted to […] after quantification.
According to a system ratio indicated in the specification, the RNA solution and kit components were prepared into a system with a total volume of 20 μl, and a programmed temperature was set for reverse transcription. Specific ratio requirements were as follows:
The PCR system is as follows:
Wuhan Servicebio Co., Ltd. was entrusted to complete H&E staining and Sirius Red staining.

Cc1n[nH]c(=S)nc1Nc1ccc(F)c(Cl)c1 [Compound 3C1]
interaction between FXR protein and Caspase 8 protein in healthy cells [1]: obviously enhanced the interaction between FXR protein and Caspase 8 protein in healthy cells in a dose-dependent manner | interaction between FXR protein and Caspase 8 protein in apoptotic hepatocytes [2]: could reverse this reduction | anti-apoptotic effect (cell viability, MTT) ([3]; ActD 30 min then TNFα 20 ng/ml for 8 h): significant anti-apoptotic effects | anti-apoptotic effect (cell viability, MTT) ([3]; CHX 50 μM 30 min then FasL 50 ng/ml for 8 h): significant anti-apoptotic effects | anti-apoptotic effect (cell viability, MTT) ([3]; TRAIL 50 ng/ml for 24 h): significant anti-apoptotic effects | serum ALT level ([4]; FIG. 5A): significantly reduced the elevated levels | serum AST level ([4]; FIG. 5B): significantly reduced the elevated levels | liver pathology, H&E staining ([4]; FIG. 5C): significant remission in the disorders of liver lobule structures, decreased infiltration of inflammatory cell, and less collagen fibers in the portal area | liver pathology, Sirius Red staining (red collagen fibers) ([4]; FIG. 5D): hyperplasia of red collagen fibers in the livers was significantly alleviated | liver Timp1 mRNA level ([4]; RT-PCR, P<0.001, FIG. 5E): significantly reduced their mRNA levels (P<0.001) in a dose-dependent manner | liver Timp2 mRNA level ([4]; RT-PCR, P<0.001, FIG. 5F): significantly reduced their mRNA levels (P<0.001) in a dose-dependent manner
